Assay results as given in ChEMBL document CHEMBL5226324, “Exploring Translocator Protein (TSPO) Medicinal Chemistry: An Approach for Targeting Radionuclides and Boron Atoms to Mitochondria” (J Med Chem, 2021).

Assays:
[1] = Displacement of [3H]flunitrazepam from CBR receptor in rat brain cortex membrane incubated for 20 mins by liquid scintillation spectrometer method; format: cell membranes, Cerebral cortex
[2] = molecular target: T1, Translocator protein (Rattus norvegicus, UniProt P16257); assay: Displacement of [3H]PK11195 from TSPO receptor in rat brain cortex membrane incubated for 120 mins by liquid scintillation spectrometer method; format: cell membranes, Cerebral cortex
[3] = Binding affinity to CBR (unknown origin); parameters: species or system Homo sapiens
[4] = Metabolic stability in rat brain assessed as parent compound remaining after 30 mins by radio-HPLC analysis; format: ADME, tissue-based; details: read-out: Stability
[5] = molecular target: T2, Translocator protein (Homo sapiens, UniProt P30536); assay: Binding affinity to TSPO receptor (unknown origin)
[6] = molecular target: T1, Translocator protein; assay: Displacement of [3H]PK11195 from TSPO receptor in rat brain cortex mitochondrial membrane by liquid scintillation spectrometer method; format: cell membranes
[7] = Lipophilicity, log P of the compound at pH 7.4; format: physicochemical; details: buffer
[8] = molecular target: T2, Translocator protein; assay: Binding affinity to human TSPO
[9] = molecular target: T1, Translocator protein; assay: Displacement of [3H]PK11195 from TSPO receptor in rat brain cortex mitochondrial membrane incubated for 60 mins by liquid scintillation spectrometer method; format: cell membranes

T2 sequence (P30536 whole entry): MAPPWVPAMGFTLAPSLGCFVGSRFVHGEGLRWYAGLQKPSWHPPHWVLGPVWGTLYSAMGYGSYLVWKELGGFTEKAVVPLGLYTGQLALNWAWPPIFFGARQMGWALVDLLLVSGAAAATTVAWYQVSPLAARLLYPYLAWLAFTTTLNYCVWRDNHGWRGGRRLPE
T1 sequence (P16257 whole entry, looked up): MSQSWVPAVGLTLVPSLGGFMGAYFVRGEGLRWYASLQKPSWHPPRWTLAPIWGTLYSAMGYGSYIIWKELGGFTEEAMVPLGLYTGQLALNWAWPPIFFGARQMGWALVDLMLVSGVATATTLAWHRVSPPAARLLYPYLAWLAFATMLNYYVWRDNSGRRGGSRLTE

`CCCN(CCC)C(=O)CC1c2ncccc2C(=O)N1c1ccc(Cl)cc1` (stereo not given) showed an IC50 ([1]; read-out: IC50) of 860 nM.

For `CCCN(CCC)C(=O)Cc1c(-c2ccc(Cl)cc2)nc2ccc(Cl)cn12` [ALPIDEM], the IC50 ([1]; read-out: IC50) was 1 nM, the IC50 [2] was 0.5 nM and the Ki [3] was 1 nM.

In the case of `CCN(CC)C(=O)Cc1c(-c2ccc(OCCF)cc2)nn2c(C)cc(C)nc12` [DPA-714], the remaining at 0.5 h [4] is reported as < 3%.

With `CCCCN1Cc2c(nc3ccccc3c2-c2ccccc2)C1=O` the IC50 [2] was > 10000 nM.

With `CCCN(CCC)C(=O)/C=C1\c2ncccc2C(=O)N1c1ccc(Cl)cc1` the IC50 ([1]; read-out: IC50) was > 1000 nM.

For `CCCN(CCC)C(=O)CC1c2nc3ccccc3cc2C(=O)N1c1ccccc1` (stereo not given), the IC50 ([1]; read-out: IC50) was > 1000 nM and the IC50 [2] was > 1000 nM.

For `CN(Cc1ccccc1)C(=O)c1nc2ccccc2c2c1CCOc1ccccc1-2`, the IC50 [2] was 10 nM.

`CCN(CC)C(=O)[C@H]1CCCc2c1c1c(OC)cccc1n2CC[18F]` gave a Ki [5] of 2.4 nM.

Compound `CC(=O)N(Cc1ccccc1OCC[18F])c1cnccc1Oc1ccccc1` has a Ki [6] of 0.07 nM and a logD [7] of 2.99.

For `CCCCCCN(CCCCCC)C(=O)CC1c2nc3ccccc3cc2C(=O)N1c1ccc(Cl)cc1` (stereo not given), the IC50 ([1]; read-out: IC50) was > 1000 nM.

For `CCCN(CCC)C(=O)/C=C1\c2nc3ccccc3cc2C(=O)N1c1ccc(Cl)cc1`, the IC50 ([1]; read-out: IC50) was > 1000 nM.

In the case of `CCCCN1Cc2c(nc3ccccc3c2-c2ccccc2F)C1=O`, the IC50 [2] is reported as > 10000 nM.

With `CCCN(CCC)C(=O)Cc1c(-c2ccc(Cl)cc2)[nH]c2ccc(Cl)cc12` the IC50 ([1]; read-out: IC50) was > 1000 nM.

Work on `CCC(C)N(C)C(=O)c1cc2ccccc2c(-c2ccccc2[123I])n1` (stereo not given) yielded a Kd [8] of 10 nM.

For `CCCCCCN(CCCCCC)C(=O)/C=C1\c2nc3ccccc3cc2C(=O)N1c1ccc(Cl)cc1`, the IC50 ([1]; read-out: IC50) was > 1000 nM.

With `CCCCCCN(CCCCCC)C(=O)/C=C1\c2ncccc2C(=O)N1c1ccc(Cl)cc1` the IC50 ([1]; read-out: IC50) was > 1000 nM.

Compound `CN1C(=O)CN=C(c2ccc(Cl)cc2)c2cc(Cl)ccc21` [RO-54864] has a Kd [5] of 1.1 nM.

With `CCCCCCN(CCCCCC)C(=O)CC1c2ncccc2C(=O)N1c1ccc(Cl)cc1` (stereo not given) the IC50 ([1]; read-out: IC50) was > 1000 nM.

In the case of `O=C1c2cccnc2CN1c1ccc(Cl)cc1`, the IC50 ([1]; read-out: IC50) is reported as > 1000 nM.

`CN1C(=O)CN=C(c2ccccc2)c2cc(Cl)ccc21` [DIAZEPAM] showed an IC50 [1] of 5.6 nM.

`CCN(CC)C(=O)Cc1c(-c2ccc([123I])cc2)nc2ccc(Cl)cn12` showed a Kd [9] of 3.84 nM.
